For series [1] the following is noted: Crystal; DTA.
Series [2] can be described thus: Molar enthalpy of transition or fusion. The conditions noted are these: Crystal; DSC.

Numbers after ± are expanded uncertainties.

As to `O=P(CCCO)(CCCO)CCCO` [tris(3-hydroxypropyl)phosphine oxide], in series [1], the Normal melting temperature is 114.61 ± 0.63 °C. In addition, the “Molar enthalpy of transition or fusion” value in series [2] is 34.2 ± 0.74 kJ/mol.

These data come from the NIST ThermoML archive (doi:10.1021/je301029j).
